From patent publication US20050282755A1, “Compositions having antimicrobial activity and uses thereof” (priority 2004, published 2005)
Converted amounts (≈) assume the structure as drawn. Non-standard residues stand in square brackets, D forms with d. Residues, ends and D or L forms follow the SMILES beside them. *: point of attachment. Palmitoyl = CCCCCCCCCCCCCCCC(=O)*; Lauroyl = CCCCCCCCCCCC(=O)*; Decanoyl = CCCCCCCCCC(=O)*; Octanoyl = CCCCCCCC(=O)*

How the values were obtained:
Format in all cases: cell-based
[1] = system: Propionibacterium acnes ATCC 6919; assay: MIC, agar dilution method NCCLS M11-A6, Brucella agar, anaerobic (Table 9, superscript c); conditions: ATCC 6919
Procedure, shortened: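 MIC taken as the lowest peptide level giving no colonies on the plate. Plates were inoculated to 1.5×10^8 CFU/milliliter, then kept anaerobically at 37° C. for 48-96 hours; method follows NCCLS M11-A6.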

[2] = system: Staphylococcus epidermidis ATCC 12228; assay: MIC, NCCLS M7-A6 broth microdilution (Table 9, no superscript); conditions: ATCC 12228
Procedure, shortened: (§1)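 Log-phase bacteria were added to wells containing peptide in cation-adjusted Mueller Hinton broth at a final 5×10^5 to 1×10^6 CFU/milliliter. Plates then sat overnight at 37° C. Wells were scored visually for turbidity against a peptide-free control.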

[3] = system: Escherichia coli ATCC 25922; assay: as above; conditions: ATCC 25922
Procedure, shortened: as §1

Salmonella dublin (Lane) = assay: as above
Procedure, shortened: as §1

[4] = system: Pseudomonas aeruginosa ATCC 27853; assay: as above; conditions: ATCC 27853
Procedure, shortened: as §1

[5] = system: Candida albicans ATCC 18804; assay: MIC in yeasts, NCCLS M27-A2 broth microdilution, RPMI 1640 (Table 9, letter e); conditions: ATCC 18804
Procedure, shortened: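 Plates incubated 24 to 48 hours at 37° C, with yeast seeded at 0.5×10^3–2.5×10^3 CFU/milliliter final in RPMI 1640 (glutamine, phenol red indicator). MIC was read as the lowest peptide concentration showing no visible growth.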

[6] = system: Staphylococcus aureus ATCC 29213; assay: MIC, NCCLS M7-A6 broth microdilution, cation-adjusted Mueller Hinton broth (Table 9, no superscript); conditions: ATCC 29213
Procedure, shortened: as §1

Row | MIC P. acnes [1] | MIC S. epidermidis [2] | MIC E. coli [3] | MIC S. dublin (Salmonella dublin (Lane)) | MIC P. aeruginosa [4] | MIC C. albicans [5] | MIC S. aureus [6] | Compound
1 | 8c ug/mL | 1 µg/mL (≈ 0.49 µM) | 4 µg/mL (≈ 1.96 µM) | 4 µg/mL (≈ 1.96 µM) | 4 µg/mL (≈ 1.96 µM) | 8e ug/mL | 2 µg/mL (≈ 0.98 µM) | CCCCCCCCCCCC(=O)NCCCC[C@@H](NC(=O)[C@@H](CCCNC(=N)N)NC(=O)[C@@H](CC(C)C)NC(=O)[C@@H](Cc1ccccc1)NC(=O)[C@@H](CC(N)=O)NC(=O)[C@@H](CCCNC(=N)N)NC(=O)[C@@H](C)NC(=O)[C@H](NC(=O)[C@@H](CC(=O)O)NC(=O)[C@@H](CCCNC(=N)N)NC(=O)[C@@H](Cc1c[nH]c2ccccc12)NC(=O)[C@@H](CCCNC(=N)N)NC(=O)[C@@H](CO)NC(=O)[C@H](N)CCCNC(=N)N)C(C)C)C(N)=O [Peptide 195, H2N-rsrwrdvarnflrk(Lauryl)-NH2] (H-[dR][dS][dR][dW][dR][dD][dV][dA][dR][dN][dF][dL][dR][dK](Lauroyl)-NH2)
2 | 16c ug/mL | 4 µg/mL (≈ 2 µM) | 16 µg/mL (≈ 7.99 µM) | 32 µg/mL (≈ 16 µM) | 64 µg/mL (≈ 31.9 µM) | 64e ug/mL | 16 µg/mL (≈ 7.99 µM) | CCCCCCCC(=O)NCCCC[C@@H](NC(=O)[C@@H](CCCNC(=N)N)NC(=O)[C@@H](CCSC)NC(=O)[C@@H](Cc1ccccc1)NC(=O)[C@@H](CC(N)=O)NC(=O)[C@@H](CCCNC(=N)N)NC(=O)[C@@H](C)NC(=O)[C@H](NC(=O)[C@@H](CC(=O)O)NC(=O)[C@@H](CCCNC(=N)N)NC(=O)[C@@H](Cc1c[nH]c2ccccc12)NC(=O)[C@@H](CCCNC(=N)N)NC(=O)[C@@H](CO)NC(=O)[C@H](N)CCCNC(=N)N)C(C)C)C(N)=O [Peptide 198, H2N-rsrwrdvarnfmrk(Octanyl)-NH2] (H-[dR][dS][dR][dW][dR][dD][dV][dA][dR][dN][dF][dM][dR][dK](Octanoyl)-NH2)
3 | 8c ug/mL | 1 µg/mL (≈ 0.492 µM) | 4 µg/mL (≈ 1.97 µM) | 8 µg/mL (≈ 3.94 µM) | 4 µg/mL (≈ 1.97 µM) | 32e ug/mL | 2 µg/mL (≈ 0.985 µM) | CCCCCCCCCC(=O)NCCCC[C@@H](NC(=O)[C@@H](CCCNC(=N)N)NC(=O)[C@@H](CCSC)NC(=O)[C@@H](Cc1ccccc1)NC(=O)[C@@H](CC(N)=O)NC(=O)[C@@H](CCCNC(=N)N)NC(=O)[C@@H](C)NC(=O)[C@H](NC(=O)[C@@H](CC(=O)O)NC(=O)[C@@H](CCCNC(=N)N)NC(=O)[C@@H](Cc1c[nH]c2ccccc12)NC(=O)[C@@H](CCCNC(=N)N)NC(=O)[C@@H](CO)NC(=O)[C@H](N)CCCNC(=N)N)C(C)C)C(N)=O [Peptide 199, H2N-rsrwrdvarnfmrk(Decanyl)-NH2] (H-[dR][dS][dR][dW][dR][dD][dV][dA][dR][dN][dF][dM][dR][dK](Decanoyl)-NH2)
4 | 8c ug/mL | 1 µg/mL (≈ 0.486 µM) | 4 µg/mL (≈ 1.94 µM) | 8 µg/mL (≈ 3.88 µM) | 4 µg/mL (≈ 1.94 µM) | 8e ug/mL | 2 µg/mL (≈ 0.971 µM) | CCCCCCCCCCCC(=O)NCCCC[C@@H](NC(=O)[C@@H](CCCNC(=N)N)NC(=O)[C@@H](CCSC)NC(=O)[C@@H](Cc1ccccc1)NC(=O)[C@@H](CC(N)=O)NC(=O)[C@@H](CCCNC(=N)N)NC(=O)[C@@H](C)NC(=O)[C@H](NC(=O)[C@@H](CC(=O)O)NC(=O)[C@@H](CCCNC(=N)N)NC(=O)[C@@H](Cc1c[nH]c2ccccc12)NC(=O)[C@@H](CCCNC(=N)N)NC(=O)[C@@H](CO)NC(=O)[C@H](N)CCCNC(=N)N)C(C)C)C(N)=O [Peptide 200, H2N-rsrwrdvarnfmrk(Lauryl)-NH2] (H-[dR][dS][dR][dW][dR][dD][dV][dA][dR][dN][dF][dM][dR][dK](Lauroyl)-NH2)
5 | 16c ug/mL | 2 µg/mL (≈ 0.945 µM) | 32 µg/mL (≈ 15.1 µM) | 16 µg/mL (≈ 7.56 µM) | >64 µg/mL | 2e ug/mL | 16 µg/mL (≈ 7.56 µM) | CCCCCCCCCCCCCCCC(=O)NCCCC[C@@H](NC(=O)[C@@H](CCCNC(=N)N)NC(=O)[C@@H](CCSC)NC(=O)[C@@H](Cc1ccccc1)NC(=O)[C@@H](CC(N)=O)NC(=O)[C@@H](CCCNC(=N)N)NC(=O)[C@@H](C)NC(=O)[C@H](NC(=O)[C@@H](CC(=O)O)NC(=O)[C@@H](CCCNC(=N)N)NC(=O)[C@@H](Cc1c[nH]c2ccccc12)NC(=O)[C@@H](CCCNC(=N)N)NC(=O)[C@@H](CO)NC(=O)[C@H](N)CCCNC(=N)N)C(C)C)C(N)=O [Peptide 201, H2N-rsrwrdvarnfmrk(Palmitoyl)-NH2] (H-[dR][dS][dR][dW][dR][dD][dV][dA][dR][dN][dF][dM][dR][dK](Palmitoyl)-NH2)
6 | 32c ug/mL | 8 µg/mL (≈ 4.03 µM) | >64 µg/mL | 32 µg/mL (≈ 16.1 µM) | >64 µg/mL | 8e ug/mL | 16 µg/mL (≈ 8.05 µM) | CCCCCCCCCCCCCCCC(=O)N[C@H](CCCNC(=N)N)C(=O)N[C@H](CO)C(=O)N[C@H](CCCNC(=N)N)C(=O)N[C@H](Cc1c[nH]c2ccccc12)C(=O)N[C@H](CCCNC(=N)N)C(=O)N[C@H](CC(=O)O)C(=O)N[C@@H](C(=O)N[C@H](C)C(=O)N[C@H](CCCNC(=N)N)C(=O)N[C@H](CC(N)=O)C(=O)N[C@H](Cc1ccccc1)C(=O)N[C@H](CCSC)C(=O)N[C@H](CCCNC(=N)N)C(N)=O)C(C)C [Peptide 209, Palmitoyl-rsrwrdvarnfmr-NH2] (Palmitoyl-[dR][dS][dR][dW][dR][dD][dV][dA][dR][dN][dF][dM][dR]-NH2)
7 | 32c ug/mL | 2 µg/mL (≈ 1.04 µM) | 8 µg/mL (≈ 4.15 µM) | 8 µg/mL (≈ 4.15 µM) | 8 µg/mL (≈ 4.15 µM) | 2e ug/mL | 4 µg/mL (≈ 2.08 µM) | CCCCCCCCCCCC(=O)N[C@H](CCCNC(=N)N)C(=O)N[C@H](CO)C(=O)N[C@H](CCCNC(=N)N)C(=O)N[C@H](Cc1c[nH]c2ccccc12)C(=O)N[C@H](CCCNC(=N)N)C(=O)N[C@H](CCC(=O)O)C(=O)N[C@@H](C(=O)N[C@H](C)C(=O)N[C@H](CCCNC(=N)N)C(=O)N[C@H](CC(N)=O)C(=O)N[C@H](Cc1ccccc1)C(=O)N[C@H](CC(C)C)C(=O)N[C@H](CCCNC(=N)N)C(N)=O)C(C)C [Peptide 221, Lauryl-rsrwrevarnflr-NH2] (Lauroyl-[dR][dS][dR][dW][dR][dE][dV][dA][dR][dN][dF][dL][dR]-NH2)
8 | >64c ug/mL | 1 µg/mL (≈ 0.484 µM) | 16 µg/mL (≈ 7.75 µM) | >64 µg/mL | 8 µg/mL (≈ 3.87 µM) | 2e ug/mL | 4 µg/mL (≈ 1.94 µM) | CCCCCCCCCCCC(=O)N[C@H](CCCNC(=N)N)C(=O)N[C@H](CCCNC(=N)N)C(=O)N[C@H](CCCNC(=N)N)C(=O)N[C@H](Cc1c[nH]c2ccccc12)C(=O)N[C@H](CCCNC(=N)N)C(=O)N[C@H](CCCNC(=N)N)C(=O)N[C@@H](C(=O)N[C@H](C)C(=O)N[C@H](CCCNC(=N)N)C(=O)N[C@H](CCCNC(=N)N)C(=O)N[C@H](Cc1ccccc1)C(=O)N[C@H](CC(C)C)C(=O)N[C@H](CCCNC(=N)N)C(N)=O)C(C)C [Peptide 222, Lauryl-rrrwrrvarrflr-NH2] (Lauroyl-[dR][dR][dR][dW][dR][dR][dV][dA][dR][dR][dF][dL][dR]-NH2)
9 | >64c ug/mL | 2 µg/mL (≈ 1.01 µM) | 16 µg/mL (≈ 8.07 µM) | 32 µg/mL (≈ 16.1 µM) | 8 µg/mL (≈ 4.04 µM) | 4e ug/mL | 4 µg/mL (≈ 2.02 µM) | CCCCCCCCCCCC(=O)N[C@H](CCCNC(=N)N)C(=O)N[C@H](CCCCN)C(=O)N[C@H](CCCNC(=N)N)C(=O)N[C@H](Cc1c[nH]c2ccccc12)C(=O)N[C@H](CCCNC(=N)N)C(=O)N[C@H](CCCCN)C(=O)N[C@@H](C(=O)N[C@H](C)C(=O)N[C@H](CCCNC(=N)N)C(=O)N[C@H](CCCCN)C(=O)N[C@H](Cc1ccccc1)C(=O)N[C@H](CC(C)C)C(=O)N[C@H](CCCNC(=N)N)C(N)=O)C(C)C [Peptide 223, Lauryl-rkrwrkvarkflr-NH2] (Lauroyl-[dR][dK][dR][dW][dR][dK][dV][dA][dR][dK][dF][dL][dR]-NH2)
10 | 16c ug/mL | 1 µg/mL (≈ 0.522 µM) | 4 µg/mL (≈ 2.09 µM) | 4 µg/mL (≈ 2.09 µM) | 8 µg/mL (≈ 4.18 µM) | 16e ug/mL | 4 µg/mL (≈ 2.09 µM) | CCCCCCCCCCCC(=O)N[C@H](CCCNC(=N)N)C(=O)N[C@H](C)C(=O)N[C@H](CCCNC(=N)N)C(=O)N[C@H](Cc1c[nH]c2ccccc12)C(=O)N[C@H](CCCNC(=N)N)C(=O)N[C@H](CC(=O)O)C(=O)N[C@@H](C(=O)N[C@H](C)C(=O)N[C@H](CCCNC(=N)N)C(=O)N[C@H](CC(N)=O)C(=O)N[C@H](Cc1ccccc1)C(=O)N[C@H](CCSC)C(=O)N[C@H](CCCNC(=N)N)C(N)=O)C(C)C [Peptide 237, Lauryl-rarwrdvarnfmr-NH2] (Lauroyl-[dR][dA][dR][dW][dR][dD][dV][dA][dR][dN][dF][dM][dR]-NH2)
